Measured values published in US20230330278A1, “METHODS FOR RADIOLABELLING PSMA BINDING LIGANDS AND THEIR KITS” (Novartis AG, priority 2020, published 2023).

Tests used:
[1] = cited from earlier work
[2] = Radiochemical purity and stability of 68GaPSMA-R2 by HPLC; type: physicochemical; conditions: for stability to the radiolytic degradation / radiochemical purity: up to 4 hours; for stability to the radiolytic degradation: without gentisic acid; for radiochemical purity: without the gentisic acid
Experimental: Radiochemical purity and identification of ^68GaPSMA-R2 by HPLC
Chromatographic conditions
The molecule was labelled with ^68Ga using E&Z generator with an activity in the range of […]. The labelling was performed at 95° C. for 7 minutes with Gallium buffer (pH 3.2-3.8). Experiments were performed by testing different amount of gentisic acid as radiolytic scavenger and peptide amounts (15 μg and 30 μg). In all tests 20 mg of mannitol were added as cake forming.

tumor models = conditions: current specific activity

SMILES | pKa (20° C.) [1] | stability to the radiolytic degradation [2] | stability to the radiolytic degradation ([2]; listed as 68Ga-PSMA-R2) | radiochemical purity [2] | radiochemical purity ([2]; listed as 68Ga-PSMA-R2) | 68Ga free ([2]; when gentisic acid is not used in the formulation) | biodistribution profile (tumor models)
O=C(O)CCC(=O)O [Succinic acid] | 4.22 | – | – | – | – | – | –
O=C([O-])CN1CCN(CC(=O)[O-])CCN(CC(=O)NCCCCCC(=O)N(CCCC[C@H](NC(=O)N[C@@H](CCC(=O)O)C(=O)O)C(=O)O)Cc2ccc(Br)cc2)CCN(CC(=O)[O-])CC1.[68Ga+3] [68GaPSMA-R2] | – | good stability to the radiolytic degradation | intrinsic stability to the radiolytic degradation | higher than 92% | over 92% | under 2% | favourable biodistribution profile in tumor models (major uptake in tumor and kidneys, relatively low uptake in other organs)
